Like-named read-outs stand apart in the source and are kept apart here.
Key:
[1] = tested on: K1 strain of P. falciparum (chloroquine resistant); assay: In vitro antimalarial activity, 48-h [3H]-hypoxanthine incorporation assay, K1 strain; assay type: cell-based, Plasmodium falciparum
Procedure: Antimalarial activity. Two strains of P. falciparum were used in this study: (a) The K1 strain which is known to be CQ resistant and (b) the HB3 strain which is sensitive to all antimalarials. Parasites were maintained in continuous culture using the method of Jensen and Trager. (J. Parasitol., 1977, 63, 883-886) Cultures were grown in flasks containing human erythrocytes (2-5%) with parasitemia in the range of 1% to 10% suspended in RPMI 1640 medium supplemented with 25 mM HEPES and 32 mM NaHCO3, and 10% human serum (complete medium). Cultures were gassed with a mixture of 3% O2, 4% CO2 and 93% N2. Antimalarial activity was assessed with an adaption of the 48-h sensitivity assay of Desjardins et al. (Antimicrob. Agents. Chemother., 1979, 16, 710-718.) using [^3H]-hypoxanthine incorporation as an assessment of parasite growth. Stock drug solutions were prepared in 100% dimethylsulphoxide (DMSO) and diluted to the appropriate concentration using complete medium. Assays were performed in sterile 96-well microtitre plates, each plate contained 200—1 of parasite culture (2% parasitemia, 0.5% haematocrit) with or without 10—1 drug dilutions. Each drug was tested in triplicate and parasite growth compared to control wells (which consituted 100% parasite growth). After 24-h incubation at 37° C., 0.5_Ci hypoxanthine was added to each well. Cultures were incubated for a further 24 h before they were harvested onto filter-mats, dried for 1 h at 55° C. and counted using a Wallac 1450 Microbeta Trilux Liquid scintillation and luminescence counter. IC50 values were calculated by interpolation of the probit transformation of the log dose—response curve. In Vivo Testing Protocol Male, random Swiss albino mice weighing 18-22 g were inoculated intraperitoneally with 10^7 parasitised erythrocytes with P. yoelii NS strain. Animals were then dosed daily via two routes (intraparential or oral) for four consecutative days beginning on the day of infection. Compounds were dissolved or suspended in the vechile solution consisting of methanol, phosphate buffered saline and DMSO (2:5:3 v/v).

[2] = tested on: HB3 strain of P. falciparum (chloroquine sensitive); assay: In vitro antimalarial activity, 48-h [3H]-hypoxanthine incorporation assay, HB3 strain; assay type: cell-based; conditions: Plasmodium falciparum; chloroquine sensitive HB3 isolate, n=4
Procedure: (§1) Antimalarial activity. Two strains of P. falciparum were used in this study: (a) The K1 strain which is known to be CQ resistant and (b) the HB3 strain which is sensitive to all antimalarials. Parasites were maintained in continuous culture using the method of Jensen and Trager. (J. Parasitol., 1977, 63, 883-886) Cultures were grown in flasks containing human erythrocytes (2-5%) with parasitemia in the range of 1% to 10% suspended in RPMI 1640 medium supplemented with 25 mM HEPES and 32 mM NaHCO3, and 10% human serum (complete medium). Cultures were gassed with a mixture of 3% O2, 4% CO2 and 93% N2. Antimalarial activity was assessed with an adaption of the 48-h sensitivity assay of Desjardins et al. (Antimicrob. Agents. Chemother., 1979, 16, 710-718.) using [^3H]-hypoxanthine incorporation as an assessment of parasite growth. Stock drug solutions were prepared in 100% dimethylsulphoxide (DMSO) and diluted to the appropriate concentration using complete medium. […] Cultures were incubated for a further 24 h before they were harvested onto filter-mats, dried for 1 h at 55° C. and counted using a Wallac 1450 Microbeta Trilux Liquid scintillation and luminescence counter. IC50 values were calculated by interpolation of the probit transformation of the log dose—response curve. […]

[3] = Biliary and urinary excretion and tissue distribution of radioactivity 5 h after i.v. [3H]AQ or [3H]ISQ; assay type: in vivo, Male Wistar rats; conditions: for % of dose accounted for (bile, tissues, plasma, urine): total recovery
Excerpt: Investigation of Biliary and Urinary Excretion of [^3H] AQ and [^3H] ISQ After Administration to Male Wistar Rats. […] The rats were carefully monitored throughout the procedure to ensure that anaesthesia was maintained. A small incision was made in the throat and the trachea was located, via blunt dissection of the surrounding connective tissue. A 1.57 mm (I.D.) polythene tube cannula was inserted and securely fastened. […] A syringe containing saline was attached to the jugular cannula to act as a seal preventing air bubbles from entering the vein. An incision was made along the midline of the abdomen. The common bile duct was located and allowed to dilate before a 0.58 mm (I.D.) cannula was inserted. Control bile was obtained. The penis was ligated, to allow urine to be collected during the experiment. […] DMSO replaced the saline in the jugular cannula to prevent the drug precipitating out of solution during dosing. A 500 μl Hamilton syringe was filled with either [^3H]AQ or [^3H]ISQ (54 μmol/kg, 25 μCi/kg) and connected to the cannula. The radiolabelled compounds were infused via the jugular vein over a period of 30 mins to prevent respiratory depression caused by DMSO. Bile fractions were collected at hourly intervals for 5 h from the start of dosing, All samples were weighed and there weight recorded. After 5 h any remaining urine was aspirated from the bladder and blood was collected via cardiac puncture with a heparinised needle into a heparinised tube. […] Tissues (brain, heart, kidney, liver, lung, spleen and skin) were removed from the animal, rinsed in saline before being placed in vials and weighed. All samples were stored at −80° C. until they were required for analysis. […] Samples were left in darkness overnight to prevent chemiluminescence. Radioactivity was then determined using a Packard 1500 Liquid Scintillation Analyser. Portions of each tissue (50-100 mg) and aliquots of red blood cells (50-60 mg) were taken in duplicate; tissue solubilizer (0.5 ml) was added to each sample and left overnight at 50° C. The samples were cooled to room temperature before being decolourised with hydrogen peroxide (200 μl) and left for 1 h. The mixture was then neutralised with glacial acetic acid (30 μl) and 12 ml of scintillation fluid was added. The mixture was mixed thoroughly and left overnight in the dark. The samples were assayed for radioactivity. (all volumes of chemicals to be added were doubled for solubulizing the red blood cells)

[4] = 24 hour metabolism study, distribution of radioactivity; assay type: in vivo, Male Wistar rats
Procedure: [^3H]AQ (54 μmol/kg) was administered i.p to male Wistar rats (200-300 g). Each animal was placed in a wire-bottom metabolism cage with access to food and water. Urine was collected over 24 h, the cage was rinsed with distilled water (10 ml) at the end of the collection period. […] All samples were stored at −80° C. until analysed. Previous ISQ data was obtained for comparison with AQ. […] Samples were left in darkness overnight to prevent chemiluminescence. Radioactivity was then determined using a Packard 1500 Liquid Scintillation Analyser. Portions of each tissue (50-100 mg) and aliquots of red blood cells (50-60 mg) were taken in duplicate; tissue solubilizer (0.5 ml) was added to each sample and left overnight at 50° C. The samples were cooled to room temperature before being decolourised with hydrogen peroxide (200 μl) and left for 1 h. The mixture was then neutralised with glacial acetic acid (30 μl) and 12 ml of scintillation fluid was added. The mixture was mixed thoroughly and left overnight in the dark. The samples were assayed for radioactivity. (all volumes of chemicals to be added were doubled for solubulizing the red blood cells)

[5] = Radioactivity in plasma and red blood cells during 5 h after dosing; assay type: in vivo, Male Wistar rats; conditions: for average plasma level, % of the dose: throughout the 5 h experiment
Procedure: The animal was anaesthetised and the jugular vein cannulated as described above. To allow blood samples to be taken regularly, the carotid artery was cannulated with 0.58 mm I.D. polythene tubing. The cannula was attached to a heparinised saline syringe to prevent blood escaping from the cannula and to prevent air bubbles from entering the blood stream. The animals were dosed as described above and the clock was started at the end of the dosing period. Blood samples (300 μl) were collected at 15 mins, 30 mins and hourly post-dosing. Heparinised saline was flushed through the cannula after every blood collection to prevent clotting within the tubing. The saline was allowed to drain out of the cannula prior to every collection point. After the fifth hour sample had been collected, all remaining blood within the rat was allowed to drain from the cannula into a heparinised tube. All samples were […] (4000 rpm for 5 min) immediately after collection and the pellet and supernatant were separated. The volume of the plasma was recorded. The tissues were also removed and weighed all samples were stored at -80° C. until analysed. The active components of the plasma were removed via extraction with ether for LC/MS analysis. […] Samples were left in darkness overnight to prevent chemiluminescence. Radioactivity was then determined using a Packard 1500 Liquid Scintillation Analyser. Portions of each tissue (50-100 mg) and aliquots of red blood cells (50-60 mg) were taken in duplicate; tissue solubilizer (0.5 ml) was added to each sample and left overnight at 50° C. The samples were cooled to room temperature before being decolourised with hydrogen peroxide (200 μl) and left for 1 h. The mixture was then neutralised with glacial acetic acid (30 μl) and 12 ml of scintillation fluid was added. The mixture was mixed thoroughly and left overnight in the dark. The samples were assayed for radioactivity. (all volumes of chemicals to be added were doubled for solubulizing the red blood cells)

[6] = LC/MS and radiochromatographic analysis of urinary, biliary and plasma metabolites; assay type: in vivo, Male Wistar rats; conditions: for biliary metabolite identified (main) / glutathione (GSH) conjugates or metabolites found: rat bile; for biliary metabolite identified (main): i.v.; for glutathione (GSH) conjugates or metabolites found: urine or blood; for main compound or metabolite in plasma: rat plasma ether extracts
Procedure: After the fifth hour sample had been collected, all remaining blood within the rat was allowed to drain from the cannula into a heparinised tube. All samples were centrifiged (4000 rpm for 5 min) immediately after collection and the pellet and supernatant were separated. The volume of the plasma was recorded. The tissues were also removed and weighed all samples were stored at −80° C. until analysed. The active components of the plasma were removed via extraction with ether for LC/MS analysis.
Analysis of Urinary, Binary and Plasma Metabolites of Male Wistar Rats Dosed with [3H]AQ or [^3H]ISQ.
Our samples were analysed using MassLynx software. Aliquots (50-100 μl) of bile, urine and plasma ether extracts, were eluted from a Zorbax SB-18 column with a slow acetonitrile gradient (10-50% over 30 mins) in ammonium acetate (5.0 mM, pH3.8) at 0.9 ml/min. Two Jasco PU-980 pumps were linked to a mixing module, allowing effluent to mix with scintillation fluid prior to reaching the Flo-One A250 _eta radioactive flow detector or allowing the effluent to be delivered to the Quattro II mass spectrometer. Nebulising and drying gas were delivered at a rate of 13 L/h and 300 L/h respectively. The temperature of the LC/MS interface was 70° C. and the capillary voltage was […]. The extent of fragmentation was modulated via altering the cone voltage.

P. bergheri = assay: In vivo activity in the mouse model against P. bergheri; conditions: in words
P. yoelii NS strain = assay: In vivo 4-day test, P. yoelii NS rodent malaria model; parameters: species or system P. yoelii (Swiss albino mice); conditions: oral administration, standard 4-day test, repeated twice
Procedure: as §1

[7] = Table 2, chloroquine resistant K1 Plasmodium falciparum, read-out: IC50
[8] = Plasmodium falciparum, chloroquine resistant K1 isolate, n=4, read-out: IC50
[9] = 5 h after i.v. 54 μmol/kg, mean±s.e.m.
[10] = male, Wistar, rat, in vivo, iv, 5 h
[11] = male, Wistar, rat, in vivo, 24 h

SMILES: CCN(CC)CCCC(C)Nc1ccnc2cc(Cl)ccc12 (stereo not drawn) [Chloroquine, chloroquine, reference compound]
- IC50 ([1]; Plasmodium falciparum, K1, read-out: IC50 nM): 190 to 250 nM

SMILES: CCNCc1ccc(Nc2ccnc3c2=CCC(Cl)C=3)cc1O (stereo not drawn) [ISQ1]
- IC50 [1, 7]: 16.5 nM

SMILES: CN(C)Cc1ccc(Nc2ccnc3c2=CCC(Cl)C=3)cc1O (stereo not drawn) [ISQ2]
- IC50 [1, 7]: 25.2 nM

SMILES: CCCN(CCC)Cc1ccc(Nc2ccnc3c2=CCC(Cl)C=3)cc1O (stereo not drawn) [ISQ3]
- IC50 [1, 7]: 23.8 nM

SMILES: CCCCN(CCCC)Cc1ccc(Nc2ccnc3c2=CCC(Cl)C=3)cc1O (stereo not drawn) [ISQ4]
- IC50 [1, 7]: 14.9 nM

SMILES: CC(C)NCc1ccc(Nc2ccnc3c2=CCC(Cl)C=3)cc1O (stereo not drawn) [ISQ5]
- IC50 [1, 7]: 22.7 nM

SMILES: CCN(CC)Cc1ccc(Nc2ccnc3cc(Cl)ccc23)cc1O [Isoquine, 4-N-(3′-hydroxy-4′-[N,N-diethylaminomethyl])anilino-7-chloroquinoline]
- IC50 [2]: 9 nM
- IC50 [1, 8]: 6 nM
- IC50 [1, 7]: 15.7 nM
- % of dose excreted into bile [3, 9]: 12.73%
- % of dose recovered in skin [3, 9]: 21.46%
- % of dose remaining in heart [3, 9]: 0.58%
- % of dose remaining in liver [3, 9]: 32.93%
- % of dose remaining in plasma [3, 9]: 0.13%
- increase in liver accumulation compared with AQ ([3]; after 5 h): approximately 10%
- % of dose in tissues ([3]; after 5 h, all tissues): 70.92%
- % of dose accounted for (bile, tissues, plasma, urine) ([3]; after 5 h): 87.17%
- % of dose excreted into urine ([3]; over 5 h after i.v. 54 μmol/kg, mean±s.e.m.): 3.39%
- % of dose remaining in liver ([4]; after 24 h): 5.48%
- % of dose remaining in skin ([4]; after 24 h): 5.6%
- % of dose remaining in the tissues ([4]; after 24 h, 54 μmol/kg): 13.87%
- % of dose in remaining tissues ([4]; after 24 h, tissues other than liver and skin): 2.97%
- % of dose removed from liver ([4]; difference between 5 h and 24 h): 27.45%
- plasma levels relative to AQ ([5]; over 5 h): 3 fold
- average plasma level, % of the dose [5]: 0.095%
- % of dose in red blood cells, constant level ([5]; throughout the experiment): 0.12%
- formation of toxic or reactive metabolites ([6]; in vivo, in words): does not form toxic metabolites
- biliary metabolite identified (main) ([6]; LC/MS): isoquine aldehyde glucuronide metabolite
- glutathione (GSH) conjugates or metabolites found ([6]; LC/MS): complete lack of glutathione metabolites
- main compound or metabolite in plasma ([6]; LC/MS): parent compound
- main compound excreted in urine ([6]; rat urine, LC/MS): parent compound isoquine
- in vivo activity against P. bergheri (P. bergheri): superior in vivo activity

SMILES: CCN(CC)Cc1cc(Nc2ccnc3cc(Cl)ccc23)ccc1O [amodiaquine, reference compound]
- IC50 [2]: 18 nM
- IC50 [1, 8]: 25 nM
- ED50 (P. yoelii NS strain; Plasmodium yoelii, in Mus musculus, po, 96 h, read-out: ED50): 7.9 mg/kg
- ED50 (P. yoelii NS strain): 7.4 mg/kg
- % of dose recovered in skin [3, 9]: 22.12%
- % of dose accounted for (bile, tissues, plasma, urine) ([3]; after 5 h): 78.56%
- % of dose remaining in heart [3, 10]: 0.34%
- % of dose remaining in liver [3, 10]: 20.82%
- % of dose remaining in plasma [3, 10]: 0.04%
- % of dose removed from liver ([4]; male, Wistar, rat, in vivo): 13.97%
- % of dose remaining in liver [4, 11]: 6.85%
- % of dose remaining in plasma [4, 11]: 0.02%
- % of dose remaining in skin [4, 11]: 7.18%
- % of dose in red blood cells after 5 h ([5]; after 5 h): 0.09%
- % of dose in red blood cells, initially ([5]; start of 5 h period): 0.12%
- average plasma level, % of the dose [5]: approximately 0.034%
- biliary metabolite identified (main) ([6]; LC/MS): a glutathione conjugate of AQ
- glutathione (GSH) conjugates or metabolites found ([6]; LC/MS): glutathione metabolites were observed
- main compound or metabolite in plasma ([6]; LC/MS): desethylAQ
